Entries after “also recorded” stand apart in the source; their conditions may differ. Where two headings read alike, the source gives them in different places.
Key:
TM4 mouse Sertoli cells = test: Cell growth and viability (MTT), dose-response of the drugs alone; type: cell-based; conditions: for IC20: read-out: IC20 ± SE; for IC80: read-out: IC80 ± SE
Procedure: Cells were maintained in standard conditions for 24 h before treatments. […] All azoles were dissolved in DMSO. In an effort to avoid a possible experimental artifact with vehicles, experiments were performed including control groups in which the effect of the drug vehicle alone was tested (vehicle control, vCTR). […] For experiments with N-acetylcysteine (NAC), 24 h after seeding cells were pre-treated for 1 h with the ROS inhibitor (1 mM) and then maintained in co-treatment with azoles for 48 h.
TM4 cells were seeded at a density of 1 × 10^4/cm^2, and cultures incubated at standard conditions in the presence or the absence of azoles to reach final concentrations ranging from 0.078 µM up to 320 µM in culture medium. Cell growth and viability were assessed at 24 and 48 h by Trypan-blue exclusion assay and MTT (3-(4,5-dimethylthiazol-2-yl)-2,5-diphenyl-2H-tetrazolium-bromide) colorimetric method (Sigma-Aldrich, St. Louis, MO, USA), quantifying the metabolic efficiency of living cells.
The Interaction Index (II) was calculated, as previously described, by modifying the Chou and Talalay equation [78]. Specifically, Chou and Talalay’s median-effect method estimates the IC50 and the sigmodicity coefficient m values using linear regression of the linearised dose-response curve.
For a two-drug assay, II is the summation of the ratios of the doses (Dn) of the drugs in combination, and the concentrations of the two drugs alone (IDx,n), to obtain a fraction x of cells affected by drug combinations (Fa). IDx,n is estimated by the following equation:(1) IDx,n=IC50(Fa/1−Fa)^1/mn

TM4 cells = test: Annexin V-FITC / propidium iodide assay of apoptosis and necrosis; type: cell-based, mouse; conditions: for apoptosis induction / cell death: 48 h, annexin V/PI, vs vCTR
Procedure: Cells were maintained in standard conditions for 24 h before treatments. […] All azoles were dissolved in DMSO. In an effort to avoid a possible experimental artifact with vehicles, experiments were performed including control groups in which the effect of the drug vehicle alone was tested (vehicle control, vCTR). In these experimental conditions, we excluded any negative effects of DMSO that is biocompatible with no biological effect per se. For experiments with N-acetylcysteine (NAC), 24 h after seeding cells were pre-treated for 1 h with the ROS inhibitor (1 mM) and then maintained in co-treatment with azoles for 48 h.
Treated and control cells (vCTR) (1 × 10^6) were collected; after washing in ice-cold PBS, samples were resuspended in 1 mL of binding buffer (10 mM HEPES, 140 mM NaCl, and 2.5 mM CaCl2, at pH 7.4) containing 10 µg/mL Annexin V-FITC and 1 µg/mL PI. After staining (1 h incubation at room temperature), cells were then washed and subsequently analysed using an FACS Calibur instrument (BD Instruments Inc., San José, CA, USA). Cells treated with 25 µM Etoposide (Eto) for 24 h were used as a positive control for apoptosis induction. Data from 10,000 events per sample were collected and analysed using an FACS Calibur instrument (BD Instruments Inc., San José, CA, USA ) equipped with cell cycle analysis software (Modfit LT for Mac V3.0) in order to calculate the percentages of apoptotic and necrotic cells.

C-PARP1 in TM4 cells = test: Western blot of cleaved PARP1 (C-PARP1); type: cell-based, mouse; conditions: 48 h exposure, ratio of cleaved PARP1 to total PARP1, vs vCTR
Procedure: The protein extracts were run on a 10% SDS-PAGE and transferred onto PVDF filters and maintained at room temperature (RT) for 2 h in 5% non-fat dry milk diluted in TBST (containing 0.1% Tween-20). After washing, membranes were incubated O/N at 4 °C with the primary antibody anti-PARP1 (Cell Signaling, Danvers, MA, USA) diluted to 1:1000 in 1% non-fat dry milk in TBST. After washing, PVDF filters were incubated for 1 h at RT with the anti-rabbit (1:5000) HRP-conjugated secondary antibody (Immunological Sciences, by Società Italiana Chimici, Rome, Italy). ECL West Pico Plus chemiluminescent substrate was used to detect signals using a ChemiDoc XRSplus imaging system (Bio-Rad Laboratories, Hercules, CA, USA). The optical densities of blot bands were quantified using ImageJ software (US National Institutes of Health, Bethesda, MD, USA); the graph values represent the ratios of cleaved PARP1 to total PARP1. ß-actin was used as loading control.

[1] = test system: ROS production in TM4 cells; test: Intracellular ROS detection (DCFH-DA fluorescence); type: cell-based, mouse; conditions: 3 h of incubation, vs vCTR
Procedure: The intracellular ROS production was detected by using 2′,7′-dichlorofluorescein diacetate (DCFH-DA) (Molecular Probes, Eugene, OR, USA), as previously reported. In brief, after 30 min and 3 h of treatments, samples were incubated with 1 µM DCFH-DA at 37 °C for 30 min. Subsequently, cells were collected and twice washed in ice-cold PBS; samples were then analysed using flow cytometry to detect the presence of intracellular ROS at the wavelengths of 502 and 524 nm, for the excitation and the emission, respectively; the fluorescence intensity was detected with a Perkin Elmer LS-50B spectrofluorometer. Cells treated with 500 µM tert-butyl hydroperoxide (t-BHP) for 1.5 h were used as a positive control for ROS generation.

[2] = cited from earlier work
ΔΨm in TM4 cells = test: Mitochondrial membrane potential (ΔΨm) by JC-1 flow cytometry; type: cell-based, mouse; conditions: 3 h of incubation, JC-1, vs vCTR
Procedure: Variations of the ΔΨm in samples exposed to azoles for 3 h were assessed using the lipophilic cation dye JC-1, as previously reported. Cells (1 × 10^6 per sample) were stained for 30 min at 37 °C in a humidified atmosphere, with 3 µM JC-1 (Molecular Probes, Eugene, OR, USA) and collected; after washing in PBS, cells were analysed using flow cytometry. To assure a positive control for the abatement of the ΔΨm, the cells were cultured in the presence of […] rotenone (Sigma-Aldrich, St. Louis, MO, USA) for 1 h at standard conditions, and then incubated with the potentiometric dye as described above. Experiments were performed in triplicate and analysed by an FACS Calibur instrument (BD Instruments Inc., San José, CA, USA). The fluorescent signals from JC-1 monomers or aggregates were detected through the FL-1 (525 ± 5 nm) and FL-2 bandpass filters (575 ± 5 nm), respectively; the forward and side scatter channels gated a minimum of 1 × 10^4 cells on the major population of normal-sized cells. ΔΨm data assessment was performed by the Cell Quest software (BD Instruments Inc., San José, CA, USA).

[3] = cited from earlier work; remark: listed apart in the source
[4] = test system: antioxidant enzymes in TM4 cells; test: Antioxidant enzymatic activity assays (SOD, CAT, GPx, GR, GST); type: cell-based, mouse
Procedure: The antioxidant enzymatic activities were performed spectrophotometrically, as previously described. Briefly, after 3 h of incubation with azoles, cells were washed in ice-cold PBS, resuspended in buffer containing 50 mM Tris–HCl (pH 7.4), 1% (v/v) Triton X-100, 1 mM EDTA, and then disrupted by three freeze-thawing cycles. After centrifugation (17,000 g, 10 min, 4 °C), the supernatants were collected for protein quantification and subsequently analysed.
The glutathione reductase (GR) activity was evaluated spectrophotometrically by measuring NADPH oxidation (340 nm at 25 °C). The reaction mix contained 50 mM potassium phosphate buffer (pH 7.0), 1 mM GSSG, 0.2 mM NADPH, 1 mM EDTA, and the adequate protein amount.
Total glutathione peroxidase (GPx) activity (se-dependent and se-independent) of each cell extract was assayed spectrophotometrically by following the NADPH oxidation (340 nm). The assay mixture contained 50 mM potassium phosphate buffer (pH 7.0), 1 mM GSH, 0.01 U/mL GSH reductase, 1 mM EDTA, 0.2 mM NADPH, 70 µM t-BHP, and the adequate amount of the protein extract. The glutathione transferase (GST) activity was evaluated by determining the GSH conjugation rate to 1-chloro-2,4- dinitrobenzene at 340 nm. The reaction mixture was prepared with 0.1 M potassium phosphate buffer (pH 6.5), 2 mM GSH, 1 mM 1-chloro-2,4-dinitrobenzene, and a determined amount of the supernatants.
The catalase (CAT) activity was evaluated, by monitoring at 240 nm its 10-millimolar decomposition. One unit was defined as 1 µmol of H2O2 reduced/min at 25 °C.
The superoxide dismutase (SOD) activity was determined using a colourimetric activity assay (ThermoFisher Scientific—Life Technologies Corp, Carlsband, CA, USA). The assay was conducted according to manufacturer’s instructions; briefly, it measures all types of SOD activity (including Cu/Zn, Mn, and FeSOD). Samples were resuspended in specific coloured diluent and added to a 96-well microplate. […] SOD-specific activity was expressed as U/mg protein, while the specific activity of all the other enzymes analysed was expressed as nmol/min/mg protein.

GSH in TM4 cells = test: GSH and GSSG intracellular content (colourimetric assay); type: cell-based, mouse; conditions: 3 h of incubation, vs vCTR
Procedure: GSH and GSSG intracellular contents were detected by using a colourimetric assay (ThermoFisher Scientific—Life Technologies Corp, Carlsband, CA, USA). The analyses were performed according to the manufacturer’s instructions after treatments with azoles at 3 h of incubation; in brief, cell lysates were prepared in ice-cold 5% 5-sulfo-salicylic acid dehydrate (Sigma-Aldrich, St. Louis, MO, USA), and subsequently resuspended in the supplied diluent before adding them into a 96-well microplate. After promptly adding substrate, the reaction with the free thiol group of GSH initiates, producing a highly coloured product. The relative absorbance was detected at 405 nm. Assays were performed at least in triplicate for the GSH and the GSSG content detection. To determine oxidised glutathione content, 2-vinylpyridine (2-VP) (Sigma-Aldrich, St. Louis, MO, USA) was added to block free GSH or other thiols contained in each sample; the specific concentration of the GSSG was determined by performing a 2-VP-treated samples standard curve.

[5] = set-up: method as in PMID 42148393; conditions: cattle; cited from earlier work
[6] = Mus musculus, TM4 cells, 48 h of exposure, drug alone, 20% fraction of cells affected (Fa), non-linear fitting
[7] = Mus musculus, TM4 cells, 48 h of exposure, drug alone, 80% fraction of cells affected (Fa), non-linear fitting

In the case of `OC(Cn1cncn1)(Cn1cncn1)c1ccc(F)cc1F` [FCZ, fluconazole], the “IC20 ± SE” value (TM4 mouse Sertoli cells; TM4 cells, 48 h of exposure, drug alone, 20% fraction of cells affected (Fa), non-linear fitting) is reported as “Not detectable”, the “IC50 ± SE” value (TM4 mouse Sertoli cells; TM4 cells, 48 h of exposure, drug alone, 50% fraction of cells affected (Fa), non-linear fitting) is reported as “Not detectable” and the “IC80 ± SE” value (TM4 mouse Sertoli cells; TM4 cells, 48 h of exposure, drug alone, 80% fraction of cells affected (Fa), non-linear fitting) is reported as “Not detectable”. The cytotoxic effects (TM4 mouse Sertoli cells; TM4 cells, up to 320 µM, individually or in combination) was “no cytotoxic effects”.
With `Clc1ccc(COC(Cn2ccnc2)c2ccc(Cl)cc2Cl)c(Cl)c1` (stereo not drawn) [MCZ, miconazole] the IC20 (TM4 mouse Sertoli cells; [6]) was 8.6 ± 0.6 µM, the IC80 (TM4 mouse Sertoli cells; [7]) was 138 ± 9.8 µM and the “apoptosis induction / cell death” value (TM4 cells) was “a level of apoptosis-induction occurred”. For the same molecule, the C-PARP1 protein levels (C-PARP1 in TM4 cells) was “significantly increased”, the “increase in ROS production” value [1] was ~ 1.4 fold and the “log Kow (log octanol-water partition coefficient)” value [2] was 6.35.
`CC(=O)N1CCN(c2ccc(OCC3COC(Cn4ccnc4)(c4ccc(Cl)cc4Cl)O3)cc2)CC1` (stereo not drawn) [KCZ, ketoconazole] showed an IC50 (TM4 mouse Sertoli cells; Mus musculus, TM4, 48 h, TM4 cells, 48 h of exposure, drug alone, 50% fraction of cells affected (Fa), non-linear fitting, read-out: IC50 ± SE) of ~73 µM, an IC20 (TM4 mouse Sertoli cells; [6]) of 18.3 ± 2.4 µM and an IC80 (TM4 mouse Sertoli cells; [7]) of 293 ± 38.1 µM. For the same molecule, the IC50 (TM4 mouse Sertoli cells; TM4 cells, 48 h of exposure, drug alone, 50% fraction of cells affected (Fa), non-linear fitting, read-out: IC50 ± SE) was 73.2 ± 9.5 µM, the “apoptosis induction / cell death” value (TM4 cells) was “a level of apoptosis-induction occurred” and the C-PARP1 protein levels (C-PARP1 in TM4 cells) was “significantly increased”. The “increase in ROS production” value [1] was ~ 1.7 fold, the “mean intensity of red-orange fluorescence (MFI) of ΔΨm high population” value (ΔΨm in TM4 cells) was “increases in MFI” and the plasma concentration ([3]; human subjects, after treatment with 400 mg/day therapy) was 24.89 µM. For the same molecule, the “systemic absorption after topical administration” value ([3]; human, topical KCZ) was “little systemic absorption”.
For `CCCN(CCOc1c(Cl)cc(Cl)cc1Cl)C(=O)n1ccnc1` [PCZ, prochloraz], the IC20 (TM4 mouse Sertoli cells; Mus musculus, TM4, 48 h) was 18.5 ± 3.9 µM, the IC50 (TM4 mouse Sertoli cells; Mus musculus, TM4, 48 h, read-out: IC50 ± SE, TM4 cells, 48 h of exposure, drug alone, 50% fraction of cells affected (Fa), non-linear fitting) was ~73 µM and the IC80 (TM4 mouse Sertoli cells; Mus musculus, TM4, 48 h) was 295 ± 62.3 µM. The IC50 (TM4 mouse Sertoli cells; read-out: IC50 ± SE, TM4 cells, 48 h of exposure, drug alone, 50% fraction of cells affected (Fa), non-linear fitting) was 73.8 ± 15.6 µM, the “apoptosis induction / cell death” value (TM4 cells) was “no significant differences; also recorded: not able to induce cell death” and the “increase in ROS production” value [1] was ~ 1.7 fold. For the same molecule, the “mean intensity of red-orange fluorescence (MFI) of ΔΨm high population” value (ΔΨm in TM4 cells) was “increases in MFI”, the “SOD/(GPx + CAT) ratio” value ([4]; 3 h of exposure, vCTR = 0.46 ± 0.067) was 0.0972 ± 0.019 and the GST activity ([4]; 3 h of incubation, vs controls) was “substantially reduced”. For the same molecule, the “GR/(GPx + GST) ratio” value ([4]; 3 h of incubation, vs vCTR) was “positive and significant shift”, the “intracellular GSH content” value (GSH in TM4 cells) was “only a slight decrease” and the “residues in edible tissues (moderate bioaccumulation)” value [5] was ≥ 0.01 mg/kg.
In the case of `CC(=O)N[C@@H](CS)C(=O)O` [NAC, N-acetylcysteine], the “effect on KCZ- and PCZ/KCZ-induced apoptosis and necrosis” value (TM4 cells; co-incubation for 48 h with 1 mM NAC) is reported as “significantly reduced”.

— article PMC9140920 (International Journal of Molecular Sciences, 2022)
